Experimental data reported in paper PMC9571608, “Detection of Bitterness in Vitamins Is Mediated by the Activation of Bitter Taste Receptors” (Nutrients, 2022).

Experiments:
human taste perception = test system: human taste perception; parameters: method as in doi:10.3758/BF03203878; settings: concentration omitted in the cited paper; cited from earlier work
TAS2R10 = molecular target: T1, TAS2R10 (Homo sapiens, UniProt Q9NYW0); experiment: Calcium mobilization assay, cells transiently expressing TAS2R10; type: cell-based; for TAS2R Receptor 10 response: key: +: positive responses (lines with background color)
T1 construct: expressed in transfected cells; host or cells: HEK293T cells stably expressing Gα16gust44
T1 sequence (Q9NYW0 1-307): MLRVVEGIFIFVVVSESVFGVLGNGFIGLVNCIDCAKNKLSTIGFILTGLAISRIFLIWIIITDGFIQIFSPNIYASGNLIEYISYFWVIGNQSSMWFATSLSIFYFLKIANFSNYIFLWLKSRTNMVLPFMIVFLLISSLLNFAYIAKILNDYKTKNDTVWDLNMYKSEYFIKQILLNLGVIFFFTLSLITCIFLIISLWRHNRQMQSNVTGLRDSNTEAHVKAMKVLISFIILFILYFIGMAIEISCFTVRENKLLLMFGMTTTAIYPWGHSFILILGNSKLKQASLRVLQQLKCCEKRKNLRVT
Procedure: (§1) A functional expression study was carried out as described previously. TAS2R expression vectors (pcDNA5FRT-SST3-TAS2R-HSV and pEAK-10-SST3-TAS2RHSV) were kindly provided by Wolfgang Meyerhof (German Institute of Human Nutrition Postdam-Rehbruecke, Nuthetal, Germany). For all constructs, the N-terminus contained the first 45 amino acids of rat somatostatin 3 (SST3) to improve membrane targeting. A sequence coding for a herpes simplex virus glycoprotein D epitope (HSV-tag) was added at the C-terminus to allow immunocytochemical detection of the receptor [13, 14, 23, 24]. HEK293T cells stably expressing the chimeric G protein α subunit Gα16gust44 [25, 26] were seeded into poly-D-lysine-coated 96-well black plates (0.35 × 10^5 cells/well) in high-glucose DMEM supplemented with 2 mM GlutaMAX, 10% dialysed fetal bovine serum penicillin/streptomycin, and G418 (400 µg/mL), and then placed under a humidified and controlled atmosphere (37 °C and 6.3% CO2) overnight. […]
Approximately one hour after loading, the plate was rinsed twice with 100 µL of C1 buffer. The calcium signal was recorded for 90 s after injection of a range of compounds using a Flexstation 3 fluorometric imaging plate reader (Molecular Devices) at a wavelength of 510 nm after excitation at 488 nm. All substance concentrations were measured in triplicate in at least three independent experiments. […]
To obtain a dose–response curve, the ratio between the maximum variation in fluorescence after ligand addition and the initial fluorescence before addition (ΔF/F0) was calculated for each well. The fluorescence signals collected for each replicate were averaged for the same substance concentration, and the fluorescence changes in the corresponding mock-transfected cells were subtracted. […] The dose–response data were fitted, and EC50 values were calculated using a four-parameter logistic equation using SigmaPlot software (Systat Software, San Jose, CA, USA). […]

TAS2R38 = molecular target: T2, TAS2R38 (Homo sapiens, UniProt P59533); experiment: Calcium mobilization assay, cells transiently expressing TAS2R38; type: cell-based; for TAS2R Receptor 38 response: key: +: positive responses (lines with background color)
T2 construct: expressed in transfected cells; host or cells: HEK293T cells stably expressing Gα16gust44
T2 sequence (P59533 1-333): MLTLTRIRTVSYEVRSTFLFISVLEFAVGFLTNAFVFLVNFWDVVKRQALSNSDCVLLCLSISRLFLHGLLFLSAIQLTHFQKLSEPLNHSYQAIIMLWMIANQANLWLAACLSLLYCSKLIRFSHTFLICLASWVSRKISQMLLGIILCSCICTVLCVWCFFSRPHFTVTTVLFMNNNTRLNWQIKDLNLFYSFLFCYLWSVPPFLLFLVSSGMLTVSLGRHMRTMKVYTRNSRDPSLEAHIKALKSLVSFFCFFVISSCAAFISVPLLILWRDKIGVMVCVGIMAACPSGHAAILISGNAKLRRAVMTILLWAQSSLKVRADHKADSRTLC
Procedure: as §1
Approximately 24–26 h after transfection, cells were loaded for 1 h at 37 °C with Fluo4-AM (2 µM, Molecular Probes), which had been previously mixed with pluronic acid F-127 (0.01%) in C1 buffer (130 mM NaCl, 5 mM KCl, 10 mM HEPES, 2 mM CaCl2, 10 mM pyruvic acid, pH 7.4, 300 mOsm) containing 2.5 mM probenecid (Life Technologies). […] The calcium signal was recorded for 90 s after injection of a range of compounds using a Flexstation 3 fluorometric imaging plate reader (Molecular Devices) at a wavelength of 510 nm after excitation at 488 nm. All substance concentrations were measured in triplicate in at least three independent experiments. […]
To obtain a dose–response curve, the ratio between the maximum variation in fluorescence after ligand addition and the initial fluorescence before addition (ΔF/F0) was calculated for each well. The fluorescence signals collected for each replicate were averaged for the same substance concentration, and the fluorescence changes in the corresponding mock-transfected cells were subtracted. […]

[1] = test system: human bitter taste detection (sensory panel); experiment: Human bitter taste detection threshold, three-alternative forced choice (3-AFC), BET method; type: in vivo; settings: 32 panelists, group BET
Text: Based on bibliographic studies, preliminary works performed in the laboratory, and the results of taste receptor functional assays, the following vitamins were included in this study: vitamin B1 (thiamine hydrochloride), vitamin B2 (riboflavin phosphate), vitamin B3 (niacinamide), and vitamin B6 (pyridoxine hydrochloride). These vitamins are present in high quantities in nutritional supplements, safe for humans (except at very high concentrations), and can induce a strong bitter taste. These concentrations were determined according to the toxicity threshold of each compound tested and the maximum daily reference intake. These compounds were prepared in commercial mineral water (Evian®, Evian, France).
The threshold values for bitter taste detection were determined by 32 panelists (18–65 years old, 14 males and 18 females, without sensory perception disorders, food allergies, drug treatments, or heart, lung, or cardiac pathologies) who were recruited from Dijon (France) and the surrounding areas. An ethical committee approved this study (Personal Protection Committee of Rennes—Ouest V, protocol code 2018A01342-53), and all panelists signed an informed consent form. A sensory test called three-alternative forced choice (3-AFC) was used in accordance with the protocol detailed in NF ISO 13301. Before performing the measurement sessions, four training sessions were provided to familiarize the panelists with the bitter taste, test procedure, and signal acquisition software. In this discriminative test, six series consisting of three samples, which were each encoded using randomly generated three-digit numbers, were simultaneously delivered to the panelists. The six 3-AFC presentations contained two blank samples (commercial mineral water, manufacturer: Evian, France) and ascending concentrations of vitamin solution. Before the test, subjects were advised that each presentation consisted of two samples that contained only water and one sample that contained a taste. For each 3-AFC presentation, subjects were asked to take the samples sequentially from left to right. Then, they placed the entirety of each sample solution in their mouths and carefully gargled to ensure that the solution was dispersed throughout the mouth. A sip-and-spit procedure was used; subjects rinsed their mouths with commercial mineral water between each series of tests. Subjects were asked to indicate which of the samples contained the stimulus. If a subject perceived no difference between the three samples, he or she was asked to choose one (forced choice). The sensory tests were conducted in a room devoted to sensory evaluation. For the case of colored samples, black-colored glasses were used, and tastings were performed under red light. […] The aim of this sensory analysis was to determine the bitter taste detection threshold for these vitamins and not an olfactory detection threshold. Therefore, the measurements were conducted using pinched nose clips. The subjects waited one minute between each series and had to thoroughly rinse their mouths. Four repetitions were performed per subject for each vitamin to obtain statistically interpretable results, which represented a total of 288 samples. During the sensory analysis session, a bitterness detection threshold of only two vitamins was used (36 samples) to avoid the ingestion of a high vitamin quantity, which is potentially harmful. The answers from the panelists were collected using software dedicated to sensory analysis (FIZZ acquisition V.2.51 software).
The best estimate threshold (BET) method was used to determine the bitter detection threshold for four vitamins. The individual best-estimated detection threshold (BET) was proposed in ASTM E679-04. ASTM E679-04 is a standard practice for the determination of odor and taste thresholds via a forced-choice ascending concentration series method of limits. […]

[2] = HEK293T-Gα16gust44 cells, calcium signal, up to M.A.C

Structure (SMILES): C=C1CC[C@H](O)C/C1=C/C=C1\CCC[C@]2(C)[C@@H]([C@H](C)CCCC(C)C)CC[C@@H]12 [Vitamin D, cholecalciferol]
- Taste described by sensory analysis (human taste perception): tasteless
- TAS2R10 activation (TAS2R10; 1 mM): strongly activate
- TAS2R Receptor 10 response (TAS2R10; [2]): +
- EC50 (TAS2R10; read-out: EC50 (half-maximal TAS2R10 activation), TAS2R10-expressing HEK293T cells, Fluo-4 calcium response): 250 ± 200 µM

Structure (SMILES): CC1=C(/C=C/C(C)=C/C=C/C(C)=C/C=O)C(C)(C)CCC1 [Vitamin A, retinal]
- TAS2R38 activation (TAS2R38; 1 mM): strongly activate
- TAS2R Receptor 38 response (TAS2R38; [2]): +
- EC50 (TAS2R38; TAS2R38-expressing HEK293T cells, Fluo-4 calcium response, read-out: EC50 (half-maximal TAS2R38 activation)): 290 ± 200 µM

Structure (SMILES): Cc1cc2nc3c(=O)[nH]c(=O)nc-3n(C[C@H](O)[C@H](O)[C@H](O)COP(=O)(O)O)c2cc1C [Vitamin B2, riboflavin phosphate]
- Human Bitter Taste Detection Threshold ([1]; Figure 3, aqueous solution): 0.00065 mol/L
- Human Bitter Taste Detection Threshold ([1]; aqueous solution (mineral water), nose clips): 0.00065 mol/L
